# Assay results: patent US8580794B2 (AbbVie Inc., priority 2009, dated 2013)
# pKi: −log10 of the molar value.
# Target: GST-Bc1-2 (Homo sapiens, UniProt P10415)
# Test: Time Resolved-Fluorescence Resonance Energy Transfer (TR-FRET) Bcl-2 binding assay with F-Bak peptide probe
# Conditions: GST-Bcl-2 1 nM, F-Bak probe 100 nM, Tb-anti-GST 1 nM; '<' = below limit of detection; read-out: TR-FRET Bcl-2 Binding Ki
# Chain of GST-Bc1-2 (P10415 whole entry): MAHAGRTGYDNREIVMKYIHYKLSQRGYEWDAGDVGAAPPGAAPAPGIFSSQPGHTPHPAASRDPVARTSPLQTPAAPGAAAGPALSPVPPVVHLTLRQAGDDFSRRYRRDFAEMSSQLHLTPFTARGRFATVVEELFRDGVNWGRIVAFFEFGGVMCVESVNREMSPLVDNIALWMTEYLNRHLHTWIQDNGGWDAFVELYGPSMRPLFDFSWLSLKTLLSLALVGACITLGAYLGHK
row,Compound,pKi
1,"CC1(C)CCC(CN2CCN(c3ccc(C(=O)NS(=O)(=O)c4ccc(N[C@H]5CCN(C6CC6)C5)c([N+](=O)[O-])c4)c(Oc4cnc5[nH]ccc5c4)c3)CC2)=C(c2ccc(Cl)cc2)C1 [Example 142, 4-(4-{[2-(4-chlorophenyl)-4,4-dimethylcyclohex-1-en-1-yl]methyl}piperazin-1-yl)-N-[(4-{[(3S)-1-cyclopropylpyrrolidin-3-yl]amino}-3-nitrophenyl)sulfonyl]-2-(1H-pyrrolo[2,3-b]pyridin-5-yloxy)benzamide]",9.89
2,"CC1(C)CCC(CN2CCN(c3ccc(C(=O)NS(=O)(=O)c4ccc(NC5CCN(C6CCOC6)CC5)c([N+](=O)[O-])c4)c(Oc4cnc5[nH]ccc5c4)c3)CC2)=C(c2ccc(Cl)cc2)C1 (stereo not drawn) [Example 143, 4-(4-{[2-(4-chlorophenyl)-4,4-dimethylcyclohex-1-en-1-yl]methyl}piperazin-1-yl)-N-({3-nitro-4-[(1-tetrahydrofuran-3-ylpiperidin-4-yl)amino]phenyl}sulfonyl)-2-(1H-pyrrolo[2,3-b]pyridin-5-yloxy)benzamide]",> 11.00
3,"CC1(C)CCC(CN2CCN(c3ccc(C(=O)NS(=O)(=O)c4ccc(N[C@@H]5CCN(C6CC6)C5)c([N+](=O)[O-])c4)c(Oc4cnc5[nH]ccc5c4)c3)CC2)=C(c2ccc(Cl)cc2)C1 [Example 144, 4-(4-{[2-(4-chlorophenyl)-4,4-dimethylcyclohex-1-en-1-yl]methyl}piperazin-1-yl)-N-[(4-{[(3R)-1-cyclopropylpyrrolidin-3-yl]amino}-3-nitrophenyl)sulfonyl]-2-(1H-pyrrolo[2,3-b]pyridin-5-yloxy)benzamide]",> 11.00
4,"CC1(C)CCC(CN2CCN(c3ccc(C(=O)NS(=O)(=O)c4ccc(NC[C@@H]5CCN(C6CCOCC6)C5)c([N+](=O)[O-])c4)c(Oc4cnc5[nH]ccc5c4)c3)CC2)=C(c2ccc(Cl)cc2)C1 [Example 145, 4-(4-{[2-(4-chlorophenyl)-4,4-dimethylcyclohex-1-en-1-yl]methyl}piperazin-1-yl)-N-{[3-nitro-4-({[(3S)-1-tetrahydro-2H-pyran-4-ylpyrrolidin-3-yl]methyl}amino)phenyl]sulfonyl}-2-(1H-pyrrolo[2,3-b]pyridin-5-yloxy)benzamide]",> 11.00
5,"CC(C)(CO)CNc1ccc(S(=O)(=O)NC(=O)c2ccc(N3CCN(CC4=C(c5ccc(Cl)cc5)CC(C)(C)CC4)CC3)cc2Oc2cnc3[nH]ccc3c2)cc1[N+](=O)[O-] [Example 146, 4-(4-{[2-(4-chlorophenyl)-4,4-dimethylcyclohex-1-en-1-yl]methyl}piperazin-1-yl)-N-({4-[(3-hydroxy-2,2-dimethylpropyl)amino]-3-nitrophenyl}sulfonyl)-2-(1H-pyrrolo[2,3-b]pyridin-5-yloxy)benzamide]",> 11.00
6,"CC1(C)CCC(CN2CCN(c3ccc(C(=O)NS(=O)(=O)c4ccc(NCC5CCCN(S(C)(=O)=O)C5)c([N+](=O)[O-])c4)c(Oc4cnc5[nH]ccc5c4)c3)CC2)=C(c2ccc(Cl)cc2)C1 (stereo not drawn) [Example 147, 4-(4-{[2-(4-chlorophenyl)-4,4-dimethylcyclohex-1-en-1-yl]methyl}piperazin-1-yl)-N-{[4-({[1-(methylsulfonyl)piperidin-3-yl]methyl}amino)-3-nitrophenyl]sulfonyl}-2-(1H-pyrrolo[2,3-b]pyridin-5-yloxy)benzamide]",> 11.00
7,"CC(=O)N1CCCC(CNc2ccc(S(=O)(=O)NC(=O)c3ccc(N4CCN(CC5=C(c6ccc(Cl)cc6)CC(C)(C)CC5)CC4)cc3Oc3cnc4[nH]ccc4c3)cc2[N+](=O)[O-])C1 (stereo not drawn) [Example 148, N-[(4-{[(1-acetylpiperidin-3-yl)methyl]amino}-3-nitrophenyl)sulfonyl]-4-(4-{[2-(4-chlorophenyl)-4,4-dimethylcyclohex-1-en-1-yl]methyl}piperazin-1-yl)-2-(1H-pyrrolo[2,3-b]pyridin-5-yloxy)benzamide]",> 11.00
8,"CC1(C)CCC(CN2CCN(c3ccc(C(=O)NS(=O)(=O)c4ccc(N[C@@H]5CCN(S(C)(=O)=O)C5)c([N+](=O)[O-])c4)c(Oc4cnc5[nH]ccc5c4)c3)CC2)=C(c2ccc(Cl)cc2)C1 [Example 149, 4-(4-{[2-(4-chlorophenyl)-4,4-dimethylcyclohex-1-en-1-yl]methyl}piperazin-1-yl)-N-[(4-{[(3R)-1-(methylsulfonyl)pyrrolidin-3-yl]amino}-3-nitrophenyl)sulfonyl]-2-(1H-pyrrolo[2,3-b]pyridin-5-yloxy)benzamide]",> 11.00
9,"CC1(C)CCCC(CN2CCN(c3ccc(C(=O)NS(=O)(=O)c4ccc(NCC5CCOCC5)c([N+](=O)[O-])c4)c(Oc4cnc5[nH]ccc5c4)c3)CC2)=C1c1ccc(Cl)cc1 [Example 150, 4-(4-{[2-(4-chlorophenyl)-3,3-dimethylcyclohex-1-en-1-yl]methyl}piperazin-1-yl)-N-({3-nitro-4-[(tetrahydro-2H-pyran-4-ylmethyl)amino]phenyl}sulfonyl)-2-(1H-pyrrolo[2,3-b]pyridin-5-yloxy)benzamide]",> 11.00
10,"CC1(C)CCC(CN2CCN(c3ccc(C(=O)NS(=O)(=O)c4ccc(NC5CN(C(CF)CF)C5)c([N+](=O)[O-])c4)c(Oc4cnc5[nH]ccc5c4)c3)CC2)=C(c2ccc(Cl)cc2)C1 [Example 151, 4-(4-{[2-(4-chlorophenyl)-4,4-dimethylcyclohex-1-en-1-yl]methyl}piperazin-1-yl)-N-{[4-({1-[2-fluoro-1-(fluoromethyl)ethyl]azetidin-3-yl}amino)-3-nitrophenyl]sulfonyl}-2-(1H-pyrrolo[2,3-b]pyridin-5-yloxy)benzamide]",10.77
11,"CC1(C)CCC(CN2CCN(c3ccc(C(=O)NS(=O)(=O)c4ccc(NCC5CCN(S(C)(=O)=O)C5)c([N+](=O)[O-])c4)c(Oc4cnc5[nH]ccc5c4)c3)CC2)=C(c2ccc(Cl)cc2)C1 (stereo not drawn) [Example 152, 4-(4-{[2-(4-chlorophenyl)-4,4-dimethylcyclohex-1-en-1-yl]methyl}piperazin-1-yl)-N-{[4-({[1-(methylsulfonyl)pyrrolidin-3-yl]methyl}amino)-3-nitrophenyl]sulfonyl}-2-(1H-pyrrolo[2,3-b]pyridin-5-yloxy)benzamide]",> 11.00
12,"CC(=O)N1CCC(CNc2ccc(S(=O)(=O)NC(=O)c3ccc(N4CCN(CC5=C(c6ccc(Cl)cc6)CC(C)(C)CC5)CC4)cc3Oc3cnc4[nH]ccc4c3)cc2[N+](=O)[O-])C1 (stereo not drawn) [Example 153, N-[(4-{[(1-acetylpyrrolidin-3-yl)methyl]amino}-3-nitrophenyl)sulfonyl]-4-(4-{[2-(4-chlorophenyl)-4,4-dimethylcyclohex-1-en-1-yl]methyl}piperazin-1-yl)-2-(1H-pyrrolo[2,3-b]pyridin-5-yloxy)benzamide]",> 11.00
13,"CC(=O)N1CC[C@@H](Nc2ccc(S(=O)(=O)NC(=O)c3ccc(N4CCN(CC5=C(c6ccc(Cl)cc6)CC(C)(C)CC5)CC4)cc3Oc3cnc4[nH]ccc4c3)cc2[N+](=O)[O-])C1 [Example 154, N-[(4-{[(3R)-1-acetylpyrrolidin-3-yl]amino}-3-nitrophenyl)sulfonyl]-4-(4-{[2-(4-chlorophenyl)-4,4-dimethylcyclohex-1-en-1-yl]methyl}piperazin-1-yl)-2-(1H-pyrrolo[2,3-b]pyridin-5-yloxy)benzamide]",> 11.00
14,"COCC(C)(C)CNc1ccc(S(=O)(=O)NC(=O)c2ccc(N3CCN(CC4=C(c5ccc(Cl)cc5)CC(C)(C)CC4)CC3)cc2Oc2cnc3[nH]ccc3c2)cc1[N+](=O)[O-] [Example 155, 4-(4-{[2-(4-chlorophenyl)-4,4-dimethylcyclohex-1-en-1-yl]methyl}piperazin-1-yl)-N-({4-[(3-methoxy-2,2-dimethylpropyl)amino]-3-nitrophenyl}sulfonyl)-2-(1H-pyrrolo[2,3-b]pyridin-5-yloxy)benzamide]",10.23
15,"CC1(C)CCC(CN2CCN(c3ccc(C(=O)NS(=O)(=O)c4ccc(NC[C@@H]5CC[C@@H](O)C5)c([N+](=O)[O-])c4)c(Oc4cnc5[nH]ccc5c4)c3)CC2)=C(c2ccc(Cl)cc2)C1 [Example 156, 4-(4-{[2-(4-chlorophenyl)-4,4-dimethylcyclohex-1-en-1-yl]methyl}piperazin-1-yl)-N-{[4-({[(1R,3R)-3-hydroxycyclopentyl]methyl}amino)-3-nitrophenyl]sulfonyl}-2-(1H-pyrrolo[2,3-b]pyridin-5-yloxy)benzamide]",> 11.00
16,"CC1(C)CCC(CN2CCN(c3ccc(C(=O)NS(=O)(=O)c4ccc(NC[C@H]5CC[C@H](O)C5)c([N+](=O)[O-])c4)c(Oc4cnc5[nH]ccc5c4)c3)CC2)=C(c2ccc(Cl)cc2)C1 [Example 157, 4-(4-{[2-(4-chlorophenyl)-4,4-dimethylcyclohex-1-en-1-yl]methyl}piperazin-1-yl)-N-{[4-({[(1S,3S)-3-hydroxycyclopentyl]methyl}amino)-3-nitrophenyl]sulfonyl}-2-(1H-pyrrolo[2,3-b]pyridin-5-yloxy)benzamide]",> 11.00
17,"CC1(C)CCC(CN2CCN(c3ccc(C(=O)NS(=O)(=O)c4ccc(NC[C@H]5CC[C@@H](O)C5)c([N+](=O)[O-])c4)c(Oc4cnc5[nH]ccc5c4)c3)CC2)=C(c2ccc(Cl)cc2)C1 [Example 158, 4-(4-{[2-(4-chlorophenyl)-4,4-dimethylcyclohex-1-en-1-yl]methyl}piperazin-1-yl)-N-{[4-({[(1S,3R)-3-hydroxycyclopentyl]methyl}amino)-3-nitrophenyl]sulfonyl}-2-(1H-pyrrolo[2,3-b]pyridin-5-yloxy)benzamide]",> 11.00
18,"CC1(C)CCC(CN2CCN(c3ccc(C(=O)NS(=O)(=O)c4ccc(NC[C@@H]5CC[C@H](O)C5)c([N+](=O)[O-])c4)c(Oc4cnc5[nH]ccc5c4)c3)CC2)=C(c2ccc(Cl)cc2)C1 [Example 159, 4-(4-{[2-(4-chlorophenyl)-4,4-dimethylcyclohex-1-en-1-yl]methyl}piperazin-1-yl)-N-{[4-({[(1R,3S)-3-hydroxycyclopentyl]methyl}amino)-3-nitrophenyl]sulfonyl}-2-(1H-pyrrolo[2,3-b]pyridin-5-yloxy)benzamide]",> 11.00
